Values quoted from earlier work in PMC8153205 (Journal of Inflammation Research, 2021).

Test system: rheumatoid arthritis
Conditions: RA clinical trials

## NC(=O)c1cnc2[nH]ccc2c1N[C@@H]1[C@@H]2CC3C[C@H]1C[C@@](O)(C3)C2 [peficitinib]
  SUCRA for serious adverse events (safety): 0.66
